Compound | CH4 permeability [Barrer] | CO2 permeability [Barrer] | H2 permeability [Barrer] | N2 permeability [Barrer] | O2 permeability [Barrer]
*c1ccc(Oc2cccc(N3C(=O)c4ccc(C(c5ccc6c(c5)C(=O)N(*)C6=O)(C(F)(F)F)C(F)(F)F)cc4C3=O)c2)cc1 (repeat unit) | 0.125 | 6.11 | 23.7 | 0.259 | 1.57
*c1ccc(*)n1C (repeat unit) | 0.22 | 6.9 |  | 0.33 | 2.04
*c1c(C)cc(-c2cc(C)c(N3C(=O)c4cc5c(cc4C3=O)C3(CC(C)(C)c4cc6c(cc43)C(=O)N(*)C6=O)CC5(C)C)c3ccccc23)c2ccccc12 (repeat unit) | 359 | 4030 | 1620 | 212 | 640
*CC(*)(C)C (repeat unit) |  |  | 13.3 | 0.76 | 2.89
*c1ccc(Oc2ccc3ccccc3c2-c2c(Oc3ccc(N4C(=O)c5ccc(C(c6ccc7c(c6)C(=O)N(*)C7=O)(C(F)(F)F)C(F)(F)F)cc5C4=O)cc3)ccc3ccccc23)cc1 (repeat unit) | 0.22 | 15 | 21.1 | 0.4 | 2.56
*Oc1c(C)cc(*)c(C(=O)c2ccc([N+](=O)[O-])cc2)c1C (repeat unit) | 0.76 | 11.4 |  | 1.27 | 5.04
*C(=C(*)c1ccc([Si](C)(C)CCCCCCCC)cc1)c1ccc(CCCC)cc1 (repeat unit) |  | 110 |  | 7.9 | 25
*Oc1ccc(C(c2ccc(Oc3ccc(S(=O)(=O)c4ccc(*)cc4)cc3)cc2)c2ccccc2C(=O)O)cc1 (repeat unit) | 0.0395 | 2.25 | 7.22 | 0.0437 | 0.441
*CC(O)CO* (repeat unit) |  | 0.012 | 0.0228 |  | 0.0038
*C(C(=O)OC(C)C)C(*)C(=O)OC(C)(C)C (repeat unit) |  |  | 133 | 9 | 21
*O[Si](*)(C)CCC (repeat unit) | 570 | 2300 |  | 182 | 394
*/C=C/c1ccc(*)cc1[Si](C)(C)CCCC (repeat unit) |  | 14 |  | 1.1 | 3.5

Source: a polymer gas permeability compilation
